{"source": "patent US5191079A", "about": "“Quinolinecarboxylic acid derivatives” (priority 1990, dated 1993)", "type_in_all_cases": "cell-based", "key": {"[1]": {"system": "Staphylococcus aureus Cowan I (IID 975)", "assay": "MIC, Experiment 1", "settings": "IID975, S. aureus Cowan I (IID 975), Gram +, read-out: Min. inhib. concentr. (MIC)", "method": "(§1) The compounds of the present invention (B, E, G, H, M, N, O, P and Q) were each dissolved in dimethylsulfoxide to prepare a solution of 5000 μg/ml in concentration. The compounds of the present invention (I, J and K) and the known compound (Y) were each dissolved in sterilized distilled water to prepare a solution of 5000 μg/ml in concentration. Each solution was diluted with sterilized distilled water to prepare a standard solution with a concentration of each test compound: 1000 μg/ml. The test was carried out by a method as appointed by Japan Society of Chemotherapy [cf. Chemotherapy, 29, 76-79 (1981), TOKYO].\n(§2) As to Streptococcus pneumoniae and Streptococcus pyogenes, Brain heart infusion broth (manufactured by DIFCO) was used as the medium for the preculture thereof, and a heart infusion agar medium containing 5% defibrinated horse blood (manufactured by Nissui Seiyaku K. K., Japan) was used as the medium for the measurement of minimum inhibitory concentration (MIC). As to other microorganisms, a sensitivity test broth (manufactured by Nissui Seiyaku K. K.) was used as the medium for the preculture thereof, and a sensitivity test agar medium (manufactured by Nissui Seiyaku K. K.) was used as the medium for the measurement of MIC."}, "[2]": {"system": "Pseudomonas aeruginosa NCTC 10490", "assay": "MIC, Experiment 1", "settings": "NCTC10490, P. aeruginosa NCTC 10490, Gram -, read-out: Min. inhib. concentr. (MIC)", "method": "as §1, §2"}, "[3]": {"system": "Streptococcus pneumoniae IID 554", "assay": "MIC, Experiment 1", "settings": "IID554, S. pneumoniae IID 554, Gram +, agar with 5% defibrinated horse blood, read-out: Min. inhib. concentr. (MIC)", "method": "as §1, §2"}, "[4]": {"system": "Staphylococcus aureus IID 803", "assay": "MIC, Experiment 1", "settings": "IID803, S. aureus IID 803, Gram +, read-out: Min. inhib. concentr. (MIC)", "method": "as §1, §2"}, "[5]": {"system": "Streptococcus pyogenes Cook", "assay": "MIC, Experiment 1", "settings": "S. pyogenes Cook, Gram +, agar with 5% defibrinated horse blood, read-out: Min. inhib. concentr. (MIC)", "method": "as §1, §2"}, "[6]": {"system": "Enterobacter cloacae 963", "assay": "MIC, Experiment 1", "settings": "E. cloacae 963, Gram -, read-out: Min. inhib. concentr. (MIC)", "method": "as §1, §2"}, "[7]": {"system": "Klebsiella pneumoniae PCI-602", "assay": "MIC, Experiment 1", "settings": "PCI602, K. pneumoniae PCI-602, Gram -, read-out: Min. inhib. concentr. (MIC)", "method": "as §1, §2"}, "[8]": {"system": "Staphylococcus aureus Terajima (IID 670)", "assay": "MIC, Experiment 1", "settings": "IID670, S. aureus Terajima (IID 670), Gram +, read-out: Min. inhib. concentr. (MIC)", "method": "as §1, §2"}, "[9]": {"system": "Micrococcus luteus ATCC 9341", "assay": "MIC, Experiment 1", "settings": "ATCC9341, M. luteus ATCC 9341, Gram +, read-out: Min. inhib. concentr. (MIC)", "method": "as §1, §2"}, "[10]": {"system": "Streptococcus pyogenes Su", "assay": "MIC, Experiment 1", "settings": "S. pyogenes Su, Gram +, agar with 5% defibrinated horse blood, read-out: Min. inhib. concentr. (MIC)", "method": "as §1, §2"}, "[11]": {"system": "Streptococcus pyogenes Sv", "assay": "MIC, Experiment 1", "settings": "S. pyogenes Sv, Gram +, agar with 5% defibrinated horse blood, read-out: Min. inhib. concentr. (MIC)", "method": "as §1, §2"}, "[12]": {"system": "Bacillus subtilis ATCC 6633", "assay": "MIC, Experiment 1", "settings": "ATCC6633, B. subtilis ATCC 6633, Gram +, read-out: Min. inhib. concentr. (MIC)", "method": "as §1, §2"}, "[13]": {"system": "Staphylococcus aureus MS-353", "assay": "MIC, Experiment 1", "settings": "MS353, S. aureus MS-353, Gram +, read-out: Min. inhib. concentr. (MIC)", "method": "as §1, §2"}, "[14]": {"system": "Streptococcus pneumoniae IID 552", "assay": "MIC, Experiment 1", "settings": "IID552, S. pneumoniae IID 552, Gram +, agar with 5% defibrinated horse blood, read-out: Min. inhib. concentr. (MIC)", "method": "as §1, §2"}, "[15]": {"system": "Staphylococcus aureus FDA 243", "assay": "MIC, Experiment 1", "settings": "FDA243, S. aureus FDA 243, Gram +, read-out: Min. inhib. concentr. (MIC)", "method": "as §1, §2"}, "[16]": {"system": "Acinetobacter calcoaceticus Ac 54", "assay": "MIC, Experiment 1", "settings": "AC54, A. calcoaceticus Ac 54, Gram -, read-out: Min. inhib. concentr. (MIC)", "method": "as §1, §2"}, "[17]": {"system": "Proteus mirabilis IFO 3849", "assay": "MIC, Experiment 1", "settings": "IFO3849, P. mirabilis IFO 3849, Gram -, read-out: Min. inhib. concentr. (MIC)", "method": "as §1, §2"}, "[18]": {"system": "Staphylococcus aureus ATCC 9144", "assay": "MIC, Experiment 1", "settings": "ATCC9144, S. aureus ATCC 9144, Gram +, read-out: Min. inhib. concentr. (MIC)", "method": "as §1, §2"}, "[19]": {"system": "Escherichia coli NIHJ JC-2", "assay": "MIC, Experiment 1", "settings": "NIHJJC2, E. coli NIHJ JC-2, Gram -, read-out: Min. inhib. concentr. (MIC)", "method": "as §1, §2"}, "[20]": {"system": "Bacillus cereus IAM 1029", "assay": "MIC, Experiment 1", "settings": "IAM1029, B. cereus IAM 1029, Gram +, read-out: Min. inhib. concentr. (MIC)", "method": "as §1, §2"}, "[21]": {"system": "Staphylococcus aureus FDA 209P JC-1", "assay": "MIC, Experiment 1", "settings": "FDA209P, S. aureus FDA 209P JC-1, Gram +, read-out: Min. inhib. concentr. (MIC)", "method": "as §1, §2"}, "[22]": {"system": "clinically isolated Enterococcus faecium", "assay": "In vitro antibacterial activity against clinical isolates, Experiment 2", "settings": "for MIC / MIC90: 25 clinical strains E. faecium; for MIC90: 90% of strains, read-out: MIC90", "method": "(§3) The above solutions were then diluted with sterilized distilled water to prepare a standard solution with a concentration of the test compound: 1000 μg/ml each.\n(§4) For the preculture of each microorganism, there was used as the medium a sensitivity test broth (manufactured by Nissui Seiyaku K. K., Japan), and for the measurement of MIC, there was used a sensitivity test agar medium (manufactured by Nissui Seiyaku K. K.).\n(§5) The clinically isolates used above were isolated from Nov. 1988 to Jun. 1989 and were obtained from Research Section, Tokyo Clinical Research Center."}, "[23]": {"system": "clinically isolated Enterococcus faecalis", "assay": "In vitro antibacterial activity against clinical isolates, Experiment 2", "settings": "for MIC90: 90% of strains, read-out: MIC90", "method": "as §3, §4, §5"}, "[24]": {"settings": "25 clinical strains E. faecalis"}}, "note": "Read-outs that look alike come from different tables or passages of the source."}
{"smiles": "CN1Cc2csc3c(C(=O)O)c(=O)c4cc(F)c(N5CCC(=O)CC5)c1c4n23", "note": "[Compound (G), 9,1-(Methylimino)methano-7-fluoro-8-(4-oxopiperidino)-5-oxo-5H-thiazolo[3,2-a]quinoline-4-carboxylic acid]", "values": [{"measurement": "MIC", "setting": "[1]", "value": "≤ 0.006", "unit": "µg/mL"}, {"measurement": "MIC", "setting": "[2]", "value": 0.39, "unit": "µg/mL"}, {"measurement": "MIC", "setting": "[3]", "value": 0.025, "unit": "µg/mL"}, {"measurement": "MIC", "setting": "[4]", "value": "≤ 0.006", "unit": "µg/mL"}, {"measurement": "MIC", "setting": "[5]", "value": 0.025, "unit": "µg/mL"}, {"measurement": "MIC", "setting": "[6]", "value": 0.2, "unit": "µg/mL"}, {"measurement": "MIC", "setting": "[7]", "value": "≤ 0.006", "unit": "µg/mL"}, {"measurement": "MIC", "setting": "[8]", "value": 0.013, "unit": "µg/mL"}, {"measurement": "MIC", "setting": "[9]", "value": 0.05, "unit": "µg/mL"}, {"measurement": "MIC", "setting": "[10]", "value": 0.013, "unit": "µg/mL"}, {"measurement": "MIC", "setting": "[11]", "value": 0.025, "unit": "µg/mL"}, {"measurement": "MIC", "setting": "[12]", "value": "≤ 0.006", "unit": "µg/mL"}, {"measurement": "MIC", "setting": "[13]", "value": "≤ 0.006", "unit": "µg/mL"}, {"measurement": "MIC", "setting": "[14]", "value": 0.025, "unit": "µg/mL"}, {"measurement": "MIC", "setting": "[15]", "value": "≤ 0.006", "unit": "µg/mL"}, {"measurement": "MIC", "setting": "[16]", "value": "≤ 0.006", "unit": "µg/mL"}, {"measurement": "MIC", "setting": "[17]", "value": 0.2, "unit": "µg/mL"}, {"measurement": "MIC", "setting": "[18]", "value": "≤ 0.006", "unit": "µg/mL"}, {"measurement": "MIC", "setting": "[19]", "value": 0.1, "unit": "µg/mL"}, {"measurement": "MIC", "setting": "[20]", "value": 0.013, "unit": "µg/mL"}, {"measurement": "MIC", "setting": "[21]", "value": 0.013, "unit": "µg/mL"}, {"measurement": "MIC50", "setting": "[22]", "value": 0.39, "unit": "µg/mL"}, {"measurement": "MIC", "setting": "[22]", "value": "0.025 to 3.13", "unit": "µg/mL"}, {"measurement": "MIC90", "setting": "[22]", "value": 3.13, "unit": "µg/mL"}, {"measurement": "MIC", "setting": "[23]; [24]", "value": "0.025 to 1.56", "unit": "µg/mL"}, {"measurement": "MIC50", "setting": "[23]; 25 clinical strains E. faecalis, 50% of strains, read-out: MIC50", "value": 0.05, "unit": "µg/mL"}, {"measurement": "MIC90", "setting": "[23]; [24]", "value": 1.56, "unit": "µg/mL"}]}
{"smiles": "CN1Cc2csc3c(C(=O)O)c(=O)c4cc(F)c(N5CCC(N(C)C)CC5)c1c4n23", "note": "[Compound (H), 9,1-(methylimino)methano-7-fluoro-8-(4-dimethylaminopiperidino)-5-oxo-5H-thiazolo[3,2-a]quinoline-4-carboxylic acid]", "values": [{"measurement": "MIC", "setting": "[1]", "value": 0.05, "unit": "µg/mL"}, {"measurement": "MIC", "setting": "[2]", "value": 0.78, "unit": "µg/mL"}, {"measurement": "MIC", "setting": "[3]", "value": 0.05, "unit": "µg/mL"}, {"measurement": "MIC", "setting": "[4]", "value": 0.1, "unit": "µg/mL"}, {"measurement": "MIC", "setting": "[5]", "value": 0.05, "unit": "µg/mL"}, {"measurement": "MIC", "setting": "[6]", "value": 0.39, "unit": "µg/mL"}, {"measurement": "MIC", "setting": "[7]", "value": 0.025, "unit": "µg/mL"}, {"measurement": "MIC", "setting": "[8]", "value": 0.05, "unit": "µg/mL"}, {"measurement": "MIC", "setting": "[9]", "value": 0.39, "unit": "µg/mL"}, {"measurement": "MIC", "setting": "[10]", "value": 0.05, "unit": "µg/mL"}, {"measurement": "MIC", "setting": "[11]", "value": 0.05, "unit": "µg/mL"}, {"measurement": "MIC", "setting": "[12]", "value": 0.05, "unit": "µg/mL"}, {"measurement": "MIC", "setting": "[13]", "value": 0.1, "unit": "µg/mL"}, {"measurement": "MIC", "setting": "[14]", "value": 0.05, "unit": "µg/mL"}, {"measurement": "MIC", "setting": "[15]", "value": 0.05, "unit": "µg/mL"}, {"measurement": "MIC", "setting": "[16]", "value": 0.1, "unit": "µg/mL"}, {"measurement": "MIC", "setting": "[17]", "value": 0.78, "unit": "µg/mL"}, {"measurement": "MIC", "setting": "[18]", "value": 0.05, "unit": "µg/mL"}, {"measurement": "MIC", "setting": "[19]", "value": 0.2, "unit": "µg/mL"}, {"measurement": "MIC", "setting": "[20]", "value": 0.05, "unit": "µg/mL"}, {"measurement": "MIC", "setting": "[21]", "value": 0.1, "unit": "µg/mL"}, {"measurement": "MIC50", "setting": "[22]", "value": 1.56, "unit": "µg/mL"}, {"measurement": "MIC", "setting": "[22]", "value": "0.2 to 25", "unit": "µg/mL"}, {"measurement": "MIC90", "setting": "[22]", "value": 12.5, "unit": "µg/mL"}, {"measurement": "MIC50", "setting": "[23]", "value": 0.39, "unit": "µg/mL"}, {"measurement": "MIC", "setting": "[23]; [24]", "value": "0.2 to 6.25", "unit": "µg/mL"}, {"measurement": "MIC90", "setting": "[23]; [24]", "value": 3.13, "unit": "µg/mL"}]}
